According to patent US8524740B2, “Synthesis and anticancer activity of aryl and heteroaryl-quinolin derivatives” (Tairx, Inc., priority 2010, dated 2013):

How the values were obtained:
[1] = system: MES-SA; assay: MTT assay, MES-SA cells; type: cell-based; conditions: Homo sapiens, 48 hrs
Method: (§1) HL-60, Hep 3B, H460, MES-SA, MES-SAID x5 and Detroit 551 cells were treated with vehicle or test compounds for 48 h. The cell growth rate was determined by MTT (3-(4,5-dimethyl-thiazol-2-yl)-2,5-diphenyltetrazoliun bromide) reduction assay.

[2] = system: MES-SA/Dx5; assay: MTT assay, MES-SA/Dx5 cells; type: cell-based, human; conditions: for IC50: Homo sapiens, MES-SA/Dx5, 48 hrs; for Ratio Of SA/Dx5: IC50 MES-SA/Dx5 over IC50 MES-SA
Method: as §1

[3] = system: H460; assay: MTT assay, H460 cells; type: cell-based; conditions: Homo sapiens, NCI-H460
Method: (§2) MTT (3-(4,5-Dimethylthiazol-2-yl)-2,5-diphenyltetrazolium bromide) assays.^21,22 HL-60, HCT-116, Hep 3B, H460, Detroit 551 and HT29/FuR cells were treated with tested compounds for the indicated periods. After treatment, cells were washed once with PBS and incubated with MTT (Sigma, St. Louis, Mo., USA) for 2 h. The formazan precipitate was dissolved in 150 μL of DMSO, and the absorbance was measured with an ELISA reader at 570 nm.
as §1
as §2, with “assays.” for “assays.^21,22”, “HL-60,” for “HL-60, HCT-116,”, “H460, A498, Colo205 and” for “H460,”, “551” for “551 and HT29/FuR”

[4] = system: HL-60; assay: MTT assay, HL-60 cells; type: cell-based; conditions: Homo sapiens
Method: as §2, §1
as §2, with “assays.” for “assays.^21,22”, “HCT-116, A549,” for “HCT-116,”, “KB, Kb-VIN” for “H460, Detroit 551”, “DU145” for “HT29/FuR”
as §2, with “assays.” for “assays.^21,22”, “HL-60,” for “HL-60, HCT-116,”, “H460, A498, Colo205 and” for “H460,”, “551” for “551 and HT29/FuR”

[5] = system: Detroit 551; assay: MTT assay, Detroit 551 normal human cells; type: cell-based; conditions: Detroit 551
Method: as §2, §1
as §2, with “assays.” for “assays.^21,22”, “HL-60,” for “HL-60, HCT-116,”, “H460, A498, Colo205 and” for “H460,”, “551” for “551 and HT29/FuR”

[6] = system: Hep3B; assay: MTT assay, Hep 3B cells; type: cell-based; conditions: Homo sapiens
Method: as §2, §1
as §2, with “assays.” for “assays.^21,22”, “HCT-116, A549,” for “HCT-116,”, “KB, Kb-VIN” for “H460, Detroit 551”, “DU145” for “HT29/FuR”
as §2, with “assays.” for “assays.^21,22”, “HL-60,” for “HL-60, HCT-116,”, “H460, A498, Colo205 and” for “H460,”, “551” for “551 and HT29/FuR”

[7] = system: HCT116; assay: MTT assay, HCT-116 cells; type: cell-based; conditions: Homo sapiens, Table 1, 48 h
Method: as §2
as §2, with “assays.” for “assays.^21,22”, “HCT-116, A549,” for “HCT-116,”, “KB, Kb-VIN” for “H460, Detroit 551”, “DU145” for “HT29/FuR”

[8] = system: HT29/5FuR; assay: MTT assay, HT29/5FuR cells; type: cell-based; conditions: Homo sapiens, HT-29, Table 1, 48 h
Method: as §2

[9] = system: HL-60, HCT-116, Hep3B, H-460; assay: Cytotoxicity screen (MTT) against human cancer cell lines, results in words; type: cell-based; conditions: comparison within sub-series or with CHM-2133
Method: as §2, §1

[10] = Homo sapiens, Table 2, B-1 series, 48 hrs
[11] = Homo sapiens, Table 3, B-2 series, 48 hrs
[12] = Table 1, 48 h, MTT, normal human cell

| Structure (SMILES) | melting point [°C] | IC50 ([6]; Table 3, B-2 series, 48 hrs) [nM] | IC50 ([1]; Table 3, B-2 series) [nM] | IC50 ([2]; Table 3, B-2 series) [nM] | Ratio Of SA/Dx5 ([2]; Table 3, B-2 series) | IC50 ([3]; Table 3, B-2 series, 48 hrs) [nM] | IC50 ([4]; Table 3, B-2 series, 48 hrs) [nM] | IC50 [5, 11] [nM] | IC50 ([6]; Table 1, 48 h, MTT) [nM] | IC50 [7] [nM] | IC50 [8] [nM] | IC50 ([3]; Table 1, 48 h, MTT) [nM] | IC50 ([4]; Table 1, 48 h, MTT) [nM] | cytotoxicity (in words) [9] | IC50 [5, 12] [nM] | also measured |
| --- | --- | --- | --- | --- | --- | --- | --- | --- | --- | --- | --- | --- | --- | --- | --- | --- |
| COc1ccccc1C1=Nc2ccc(N3CCOCC3)cc2C(=O)C1 [Compound 130, 2-(2-Methoxyphenyl)-6-morpholinoquinolin-4-one] | 262 to 264 |  |  |  |  |  |  |  |  |  |  |  |  |  |  | IC50 ([1]; Table 2, B-1 series): 2500 nM; IC50 ([2]; Table 2, B-1 series): 9710 nM; Ratio Of SA/Dx5 ([2]; Table 2, B-1 series): 3.88; IC50 ([3]; Table 2, B-1 series, 48 hrs): 7360 nM; IC50 ([4]; Table 2, B-1 series, 48 hrs): 2480 nM; IC50 [5, 10]: > 20000 nM |
| COc1ccc(OC)c(C2=Nc3ccc(N4CCCC4)cc3C(=O)C2)c1 [Compound 129, 2-(2,5-Dimethoxyphenyl)-6-pyrrolidinoquinolin-4-one] | 272 to 274 | 220 | 229 | 216 | 0.94 | 190 | 6 | 5000 |  |  |  |  |  |  |  |  |
| O=C1CC(c2cccc3c2OCO3)=Nc2ccc(N3CCOCC3)cc21 [Compound 124, 2-(Benzo[d][1,3]-dioxol-4-yl)-6-morpholinoquinolin-4-one] | 350 to 352 |  |  |  |  |  |  |  |  |  |  |  |  |  |  | IC50 ([6]; Table 2, B-1 series, 48 hrs): 1500 nM; IC50 ([1]; Table 2, B-1 series): 2350 nM; IC50 ([2]; Table 2, B-1 series): 2100 nM; Ratio Of SA/Dx5 ([2]; Table 2, B-1 series): 0.89; IC50 ([3]; Table 2, B-1 series, 48 hrs): 2130 nM; IC50 ([4]; Table 2, B-1 series, 48 hrs): 720 nM; IC50 [5, 10]: > 2500 nM |
| O=C1CC(c2cccc(O)c2)=Nc2ccc(N3CCCC3)cc21 [Compound 138, 2-(3-Hydroxyphenyl)-6-pyrrolidinoquinolin-4-one] | 364 to 367 | 280 | 734 | 320 | 0.23 | 400 | 9 | 1390 |  |  |  |  |  |  |  |  |
| COc1cc2c(cc1O)N=C(c1ccccc1F)CC2=O [Compound 43, 2-(2-Fluorophenyl)-7-hydroxy-6-methoxyquinolin-4-one] | 277 to 279 |  |  |  |  |  |  |  | 5300 | 5800 | 290 | 4400 | 1300 | greater cytotoxicity | 29700 |  |
| O=C1CC(c2cccc3c2OCO3)=Nc2ccc(N3CCCC3)cc21 [Compound 125, 2-(Benzo[d][1,3]-dioxol-4-yl)-6-pyrrolidinoquinolin-4-one] | 330 to 332 | 200 | 100 | 183 | 1.83 | 200 | 80 | > 2500 |  |  |  |  |  |  |  |  |
| COc1ccc2c(c1OC)C(=O)CC(c1cccc(F)c1)=N2 [Compound 17, 2-(3-Fluorophenyl)-5,6-dimethoxyquinolin-4-one] | 190 to 192 |  |  |  |  |  |  |  | 2600 | 1200 | 1960 | 3500 | 1300 | strongest cytotoxicity | 100000 |  |
| COc1cc2c(cc1O)N=C(c1cccc(F)c1)CC2=O [Compound 44, 2-(3-Fluorophenyl)-7-hydroxy-6-methoxyquinolin-4-one] | 326 to 328 |  |  |  |  |  |  |  | 5300 | 1100 | 300 | 4800 | 900 | greater cytotoxicity | 10000 |  |
| CN(C)c1ccc2c(c1)C(=O)CC(c1cccc(O)c1)=N2 [Compound 139, 2-(3-Hydroxyphenyl)-6-dimethylaminoquinolin-4-one] | 342 to 344 |  |  |  |  |  |  |  |  |  |  |  |  |  |  | IC50 ([6]; Table 4, B-3 series, 48 hrs): 1000 nM; IC50 ([1]; Table 4, B-3 series): 931 nM; IC50 ([2]; Table 4, B-3 series): 852 nM; Ratio Of SA/Dx5 ([2]; Table 4, B-3 series): 0.92; IC50 ([3]; Table 4, B-3 series, 48 hrs): 6200 nM; IC50 ([4]; Table 4, B-3 series, 48 hrs): 60 nM; IC50 ([5]; Homo sapiens, Table 4, B-3 series, 48 hrs): 10000 nM |
| O=C1CC(c2cc(O)ccc2O)=Nc2ccc(N3CCOCC3)cc21 [Compound 144a, 2-(2,5-dihydroxyphenyl)-6-morpholinoquinolin-4-one] |  | 7380 | 3690 | 25000 | 6.78 | 6500 | 1620 | 9100 |  |  |  |  |  |  |  |  |
| O=C1CC(c2cccc(F)c2)=Nc2ccc3c(c21)OCO3 [Compound 20, 2-(3-Fluorophenyl)-5,6-methylenedioxyquinolin-4-one] | 286 to 288 |  |  |  |  |  |  |  | 2400 | 2500 | 820 | 3200 | 700 | significant cytotoxicity | > 5000 |  |
| COc1ccc2c(c1OC)C(=O)CC(c1ccc(F)cc1)=N2 [Compound 18, 2-(4-Fluorophenyl)-5,6-dimethoxyquinolin-4-one] | 227 to 229 |  |  |  |  |  |  |  | > 20000 | > 20000 | 2020 | > 20000 | 2000 | weaker | > 20000 |  |
| O=C1CC(c2ccccc2O)=Nc2ccc(N3CCCC3)cc21 [Compound 135, 2-(2-Hydroxyphenyl)-6-pyrrolidinoquinolin-4-one] | 304 to 306 | 1310 | 846 | 1000 | 1.18 | 860 | 360 | 25000 |  |  |  |  |  |  |  |  |
| COc1cc2c(cc1O)N=C(c1ccc(F)cc1)CC2=O [Compound 45, 2-(4-Fluorophenyl)-7-hydroxy-6-methoxyquinolin-4-one] | 352 to 354 |  |  |  |  |  |  |  | > 100000 | > 100000 | 370 | > 100000 | 38200 | weaker | > 100000 |  |
| COc1cccc(C2=Nc3ccc(N4CCOCC4)cc3C(=O)C2)c1OC [Compound 126, 2-(2,3-Dimethoxyphenyl)-6-morpholinoquinolin-4-one] | 235 to 236 |  |  |  |  |  |  |  |  |  |  |  |  |  |  | IC50 ([6]; Table 2, B-1 series, 48 hrs): 9800 nM; IC50 ([1]; Table 2, B-1 series): 5000 nM; IC50 ([2]; Table 2, B-1 series): 17500 nM; Ratio Of SA/Dx5 ([2]; Table 2, B-1 series): 3.49; IC50 ([3]; Table 2, B-1 series, 48 hrs): 17400 nM; IC50 ([4]; Table 2, B-1 series, 48 hrs): 5220 nM; IC50 [5, 10]: > 50000 nM |
| COc1ccc(OC)c(C2=Nc3ccc(N4CCOCC4)cc3C(=O)C2)c1 [Compound 128, 2-(2,5-Dimethoxyphenyl)-6-morpholinoquinolin-4-one] |  |  |  |  |  |  |  |  |  |  |  |  |  |  |  | IC50 ([6]; Table 2, B-1 series, 48 hrs): 3110 nM; IC50 ([1]; Table 2, B-1 series): 2030 nM; IC50 ([2]; Table 2, B-1 series): 8200 nM; Ratio Of SA/Dx5 ([2]; Table 2, B-1 series): 4.04; IC50 ([3]; Table 2, B-1 series, 48 hrs): 3470 nM; IC50 ([4]; Table 2, B-1 series, 48 hrs): 1200 nM; IC50 [5, 10]: 16600 nM |
| COc1ccccc1C1=Nc2ccc(N3CCCC3)cc2C(=O)C1 [Compound 131, 2-(2-Methoxyphenyl)-6-pyrrolidinoquinolin-4-one] | 312 to 313 | 300 | 445 | 451 | 1.01 | 570 | 130 | > 10000 |  |  |  |  |  |  |  |  |
| O=C1CC(c2ccc(F)cc2)=Nc2ccc3c(c21)OCO3 [Compound 21, 2-(4-Fluorophenyl)-5,6-methylenedioxyquinolin-4-one] | 286 to 288 |  |  |  |  |  |  |  | > 10000 | > 10000 | 530 | > 10000 | > 10000 | weaker | > 10000 |  |
| O=C1CC(c2ccccc2O)=Nc2ccc(N3CCOCC3)cc21 [Compound 134, 2-(2-Hydroxyphenyl)-6-morpholinoquinolin-4-one] |  |  |  |  |  |  |  |  |  |  |  |  |  |  |  | IC50 ([6]; Table 2, B-1 series, 48 hrs): 8780 nM; IC50 ([1]; Table 2, B-1 series): 2380 nM; IC50 ([2]; Table 2, B-1 series): 10400 nM; Ratio Of SA/Dx5 ([2]; Table 2, B-1 series): 4.38; IC50 ([3]; Table 2, B-1 series, 48 hrs): 8300 nM; IC50 ([4]; Table 2, B-1 series, 48 hrs): 2100 nM; IC50 [5, 10]: > 100000 nM |
| O=C1CC(c2ccccc2F)=Nc2ccc3c(c21)OCO3 [Compound 19, 2-(2-Fluorophenyl)-5,6-methylenedioxyquinolin-4-one] | 282 to 283 |  |  |  |  |  |  |  | 1900 | 2100 | 690 | 4500 | 1000 | significant cytotoxicity | > 10000 |  |
